Literature values in US9364565B2, “Medical device with coating for capturing genetically-altered cells and methods of using same” (OrbusNeich Medical, Inc., priority 2000, dated 2016).

Columns and labels:
VEGFR-2 = VEGFR-2 (Homo sapiens, UniProt P35968)
endothelial cells = settings: 100 μg

Sequence of VEGFR-2 (P35968 20-1356): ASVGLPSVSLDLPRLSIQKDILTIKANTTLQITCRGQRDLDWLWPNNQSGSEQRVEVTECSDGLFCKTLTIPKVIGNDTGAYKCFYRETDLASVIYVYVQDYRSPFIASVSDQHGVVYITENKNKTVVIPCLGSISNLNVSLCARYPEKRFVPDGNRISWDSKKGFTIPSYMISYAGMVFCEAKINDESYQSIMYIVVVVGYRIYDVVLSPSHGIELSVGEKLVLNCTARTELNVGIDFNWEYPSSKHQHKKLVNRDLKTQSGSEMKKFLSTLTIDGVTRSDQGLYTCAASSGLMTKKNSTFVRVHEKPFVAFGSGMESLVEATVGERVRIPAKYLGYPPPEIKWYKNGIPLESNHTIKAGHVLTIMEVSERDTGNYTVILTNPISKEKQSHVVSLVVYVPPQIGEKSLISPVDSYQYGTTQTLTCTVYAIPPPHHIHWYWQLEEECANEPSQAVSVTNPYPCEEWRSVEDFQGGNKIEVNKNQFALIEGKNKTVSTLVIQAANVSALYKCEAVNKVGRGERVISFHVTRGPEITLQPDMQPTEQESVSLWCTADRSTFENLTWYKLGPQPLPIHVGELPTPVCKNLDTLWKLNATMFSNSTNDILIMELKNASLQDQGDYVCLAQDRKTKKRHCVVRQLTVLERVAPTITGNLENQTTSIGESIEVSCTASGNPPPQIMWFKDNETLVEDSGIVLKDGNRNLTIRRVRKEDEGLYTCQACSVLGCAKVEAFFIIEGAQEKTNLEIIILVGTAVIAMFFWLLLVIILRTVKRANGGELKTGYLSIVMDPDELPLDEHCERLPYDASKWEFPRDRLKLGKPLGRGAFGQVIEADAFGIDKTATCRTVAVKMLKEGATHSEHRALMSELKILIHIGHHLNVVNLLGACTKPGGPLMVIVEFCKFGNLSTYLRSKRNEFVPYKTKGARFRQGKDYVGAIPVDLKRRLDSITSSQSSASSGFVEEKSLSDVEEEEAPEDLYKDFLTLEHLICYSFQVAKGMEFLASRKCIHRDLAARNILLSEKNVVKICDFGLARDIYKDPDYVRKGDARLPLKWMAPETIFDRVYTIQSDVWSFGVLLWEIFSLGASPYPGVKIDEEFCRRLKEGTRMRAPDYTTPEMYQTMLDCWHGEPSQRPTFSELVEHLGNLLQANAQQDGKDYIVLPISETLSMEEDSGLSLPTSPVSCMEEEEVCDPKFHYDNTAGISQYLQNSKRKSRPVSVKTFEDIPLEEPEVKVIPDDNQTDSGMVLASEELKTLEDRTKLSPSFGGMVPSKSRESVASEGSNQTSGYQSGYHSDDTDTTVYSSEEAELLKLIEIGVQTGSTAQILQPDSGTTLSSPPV

| Compound | binding to VEGFR-2 (VEGFR-2) | adherence of endothelial cells on a medical device (endothelial cells) |
| --- | --- | --- |
| Cc1[nH]c(/C=C2\C(=O)Nc3ccccc32)c(C)c1CCC(=O)O [SU6668] | bind to VEGFR-2 |  |
| VEGF |  | stimulate the adherence of endothelial cells on a medical device |
